Where two headings read alike, the source gives them in different places. One block for each compound: values may come before it.
Legend:
Stability during storage = type: physicochemical
[1] = Sheikh et al., cited from earlier work; for Observed in vitro Pi Binding, %: pH 6.0
[2] = mean of triplicate
[3] = system: parathyroid hormone (PTH) secretion; settings: maintenance dialysis patients; cited from earlier work
[4] = cited from earlier work
[5] = cited from earlier work; remark: listed apart in the source
[6] = in many patients; cited from earlier work
[7] = Solubility in water of cationic phosphate binders (Table 1)
[8] = 600 mg oral, cited from earlier work
[9] = cited from earlier work; for Fractional phosphorus absorption / Net phosphorus absorption: mean ± SE
[10] = hemodialysis or peritoneal dialysis patients; cited from earlier work

- stability during storage (Stability during storage): even more unstable during storage
Compound: O=C(O)CCCC[C@@H]1CCSS1 [(R)-(+)-lipoic acid]

Compound: O=C([O-])CC(O)(CC(=O)[O-])C(=O)[O-].O=C([O-])CC(O)(CC(=O)[O-])C(=O)[O-].[Ca+2].[Ca+2].[Ca+2] [Calcium Citrate]
- Observed in vitro Pi Binding, % [1]: 10%
- Observed in vitro Pi Binding ([1]; pH 6.5): 20% at pH 6.5 (NOTE 2)

Compound: O=C([O-])CCC(=O)[O-].[Ca+2] [Calcium Succinate]
- Observed in vitro Pi Binding, % ([2]; pH 4.0): 59.4%
- Observed in vitro Pi Binding, % ([2]; pH 6.0): 94.0%

Compound: [Mg+2].[OH-].[OH-] [Magnesium Hydroxide]
- suppressing parathyroid hormone (PTH) secretion [3]: Neither the combination of oral calcium carbonate/magnesium hydroxide nor magnesium hydroxide alone was effective
- serum Pi levels ([4]; avg 734 mg elemental Mg/day, 3-5 weeks, control (no binders) 9.0 mg/dL): 8.1 mg/dL
- mean serum Mg levels ([4]; avg 734 mg elemental Mg/day, dialysate Mg 1.2 to 1.8 mg/dl): 4.32 mg/dL
- patients who developed diarrhea ([4]; nine hemodialysis patients): Four of nine
- serum Pi levels ([5]; avg 991 mg elemental Mg daily, dialysate lacking Mg, rose from 4.3): 6.1 mg/dL
- serum Mg level (average) ([5]; during Mg(OH)2 treatment): 4.3 mg/dL
- severe hyperkalemia [6]: ≤ 8 mEq/L

Compound: [O]=[Mg] [Magnesium Oxide]
- Hydrophile? [7]: No

- stability during storage (Stability during storage): unstable during storage
Compound: O=C(O)CCCCC1CCSS1 (centres unmarked) [lipoic acid, 1,2-dithiolane-3-pentanoic acid]
- safety when ingested by patients with kidney disease [8]: safe
- pharmacokinetics, influence of renal function ([8]; severely reduced kidney function or ESRD vs healthy): not influenced by creatinine clearance

- stability during storage (Stability during storage): stable during storage
Compound: O=C([O-])CCCC[C@@H]1CCSS1.O=C([O-])CCCC[C@@H]1CCSS1.[Mg+2] [magnesium (R)-(+)-lipoate]

Compound: Calcium Gluconate
- Observed in vitro Pi Binding, % [1]: 90%

Compound: Magnesium Acetate
- fractional absorption of dietary Pi ([9]; 50 mEq of the salt, reduced from 77%): 34%
- Pi absorption from ingesta ([9]; 77 mEq per os, 75% with placebo, normal subjects): 28%
- fractional magnesium absorption ([9]; highest magnesium intake): 11%
- fractional magnesium absorption ([9]; lowest magnesium intake): 65%
- Fractional phosphorus absorption ([9]; standard meal + 10.2 mEq MgAc): 55.8 ± 2.8 %
- Net phosphorus absorption ([9]; standard meal + 10.2 mEq MgAc): 7.5 ± 0.4 mmol
- Fractional phosphorus absorption ([9]; standard meal + 19.4 mEq MgAc): 47.1 ± 3.4 %
- Net phosphorus absorption ([9]; standard meal + 19.4 mEq MgAc): 6.3 ± 0.5 mmol
- Fractional phosphorus absorption ([9]; standard meal + 39.0 mEq MgAc): 37.0 ± 5.4^|| %
- Net phosphorus absorption ([9]; standard meal + 39.0 mEq MgAc): 4.8 ± 0.7^|| mmol
- Fractional phosphorus absorption ([9]; standard meal + 77.2 mEq MgAc): 28.1 ± 4.8^¶ %
- Net phosphorus absorption ([9]; standard meal + 77.2 mEq MgAc): 3.8 ± 0.6^¶ mmol

Compound: choline magnesium trisalicylate
- effect on serum Pi levels [10]: no effect

- stability during storage (Stability during storage): stable during storage
Compound: magnesium lipoate
